Results: US20260184687A1, “DIHYDROINDENE DERIVATIVES AS MALT1 INHIBITORS” (C4X Discovery Limited, priority 2022, published 2026)
pIC50: −log10 of the molar value.

What follows are compounds tested against T1, FL hMALT1 enzyme (Homo sapiens, UniProt Q9UDY8) (assay: biochemical).
T1 sequence (Q9UDY8 1-824): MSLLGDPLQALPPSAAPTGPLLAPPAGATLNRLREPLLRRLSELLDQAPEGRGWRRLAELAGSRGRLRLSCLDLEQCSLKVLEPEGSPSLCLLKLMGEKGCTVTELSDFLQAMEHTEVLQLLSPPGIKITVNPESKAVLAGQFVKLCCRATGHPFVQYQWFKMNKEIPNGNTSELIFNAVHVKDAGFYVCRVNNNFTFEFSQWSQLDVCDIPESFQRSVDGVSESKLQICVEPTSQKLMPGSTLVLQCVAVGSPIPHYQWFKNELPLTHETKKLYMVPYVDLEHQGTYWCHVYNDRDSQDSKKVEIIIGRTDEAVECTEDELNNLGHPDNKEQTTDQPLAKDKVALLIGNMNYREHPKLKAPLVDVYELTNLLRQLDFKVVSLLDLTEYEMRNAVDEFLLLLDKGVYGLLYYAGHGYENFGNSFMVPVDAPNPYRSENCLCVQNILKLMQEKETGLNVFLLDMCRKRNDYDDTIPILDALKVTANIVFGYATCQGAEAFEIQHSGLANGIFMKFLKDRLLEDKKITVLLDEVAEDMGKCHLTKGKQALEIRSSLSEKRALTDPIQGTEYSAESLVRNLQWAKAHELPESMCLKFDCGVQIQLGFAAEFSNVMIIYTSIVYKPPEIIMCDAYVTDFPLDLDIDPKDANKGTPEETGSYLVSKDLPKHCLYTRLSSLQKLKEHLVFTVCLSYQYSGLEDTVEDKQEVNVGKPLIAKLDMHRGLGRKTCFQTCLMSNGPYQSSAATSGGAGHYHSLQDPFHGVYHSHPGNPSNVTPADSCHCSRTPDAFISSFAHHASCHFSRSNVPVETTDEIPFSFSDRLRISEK
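Note: Cell-free protease assay: enzyme preincubated with compound 30 min at room temperature, then cleavage of fluorogenic Ac-LVSR-AMC substrate (100 µM) tracked by fluorescence (ex 360/em 460 nm).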

| pIC50 | SMILES |
| --- | --- |
| 8.15 | CN(C(=O)C1CCS(=O)(=O)CC1)[C@@H](c1ccc(NC2Cc3ccc(Cl)c(Cl)c3C2)nc1)C(F)(F)F (single isomer, unassigned) [Example 345] |
| 6.25 | CN(C(=O)C1CC2(CCC(=O)N2)C1)[C@@H](c1ccc(NC2Cc3ccc(Cl)c(Cl)c3C2)cn1)C(F)(F)F (single isomer, unassigned) [Example 340] |
| 6.59 | COc1cccc2c1CC(Nc1ccc([C@H](N(C)C(=O)C3CCS(=O)(=O)CC3)C(F)(F)F)nc1)C2 (single isomer, unassigned) [Example 178] |
| 6.51 | CN(C(=O)C1CN(C(=O)C2CCO2)C1)[C@@H](c1ccc(NC2Cc3ccc(Cl)c(F)c3C2)cn1)C(F)(F)F (single isomer, unassigned) [Example 387] |
| 6.34 | CN(C(=O)C1CCS(=O)(=O)CC1)[C@@H](c1ccc(NC2Cc3c(F)ccc(F)c3C2)cn1)C(F)(F)F [Example 273, (S)—N-(1-(5-((4,7-Difluoro-2,3-dihydro-1H-inden-2-yl)amino)pyridin-2-yl)-2,2,2-trifluoroethyl)-N-methyltetrahydro-2H-thiopyran-4-carboxamide 1,1-dioxide] |
| 6.40 | CN(C(=O)C1CCS(=O)(=O)CC1)[C@@H](c1ccc(NC2Cc3ccc(Cl)c(F)c3C2)nc1)C(F)(F)F (single isomer, unassigned) [Example 331] |
| 7.02 | CN(C(=O)[C@H]1C[C@@H](O)C1)[C@@H](c1ccc(NC2Cc3ccc(Cl)c(F)c3C2)cn1)C(F)(F)F (single isomer, unassigned) [Example 382] |
| 5.85 | CN(C(=O)C1CCS(=O)(=O)CC1)[C@@H](c1ccc(NC2Cc3ccc(C4CC4)cc3C2)cn1)C(F)(F)F (single isomer, unassigned) [Example 308] |
| 6.54 | CN(C(=O)C1CCS(=O)(=O)CC1)[C@@H](c1ccc(NC2Cc3cc(F)cc(Cl)c3C2)cn1)C(F)(F)F (single isomer, unassigned) [Example 287] |
| 6.47 | CN(C(=O)C1CCS(=O)(=O)CC1)[C@@H](c1ccc(NC2Cc3cc(Cl)c(OC(F)F)cc3C2)cn1)C(F)(F)F (stereo partly drawn) [Example 291, N-((1S)-1-(5-((5-Chloro-6-(difluoromethoxy)-2,3-dihydro-1H-inden-2-yl)amino)pyridin-2-yl)-2,2,2-trifluoroethyl)-N-methyltetrahydro-2H-thiopyran-4-carboxamide 1,1-dioxide] |
| 6.37 | CN(C(=O)C1CCS(=O)(=O)CC1)[C@@H](c1ccc(NC2Cc3cc(F)c(Br)cc3C2)cn1)C(F)(F)F (stereo partly drawn) [Example 310, N-((1S)-1-(5-((5-Bromo-6-fluoro-2,3-dihydro-1H-inden-2-yl)amino)pyridin-2-yl)-2,2,2-trifluoroethyl)-N-methyltetrahydro-2H-thiopyran-4-carboxamide 1,1-dioxide] |
| 5.14 | CN(C(=O)CN1CCCS1(=O)=O)[C@@H](c1ccc(NC2Cc3ccc(Cl)c(F)c3C2)cn1)C(F)(F)F (single isomer, unassigned) [Example 361] |
| 6.23 | CN(C(=O)C1CN(C(=O)C2CCOC2)C1)[C@@H](c1ccc(NC2Cc3ccc(Cl)c(Cl)c3C2)cn1)C(F)(F)F (single isomer, unassigned) [Example 351] |
| 6.14 | CN(C(=O)C1CCS(=O)(=O)CC1)[C@@H](c1ccc(NC2Cc3cc(F)cc(Cl)c3C2)cn1)C(F)(F)F (single isomer, unassigned) [Example 286] |
| 6.74 | CN(C(=O)C1CCS(=O)(=O)CC1)[C@@H](c1ccc(NC2Cc3ccc(F)cc3C2)cn1)C(F)(F)F (single isomer, unassigned) [Example 259] |
| 6.68 | COCc1c(Cl)ccc2c1CC(Nc1ccc([C@H](N(C)C(=O)C3CCS(=O)(=O)CC3)C(F)(F)F)nc1)C2 (stereo partly drawn) [Example 356, N-((1S)-1-(5-((5-Chloro-4-(methoxymethyl)-2,3-dihydro-1H-inden-2-yl)amino)pyridin-2-yl)-2,2,2-trifluoroethyl)-N-methyltetrahydro-2H-thiopyran-4-carboxamide 1,1-dioxide] |
| 6.52 | CNC(=O)N1CC(C(=O)N(C)[C@@H](c2ccc(NC3Cc4ccc(Cl)c(Cl)c4C3)cn2)C(F)(F)F)C1 (single isomer, unassigned) [Example 334] |
| 6.00 | CN(C(=O)C1CCS(=O)(=O)CC1)[C@@H](c1ccc(NC2Cc3ccc(OC(F)F)cc3C2)cn1)C(F)(F)F (stereo partly drawn) [Example 324, N-((1S)-1-(5-((5-(Difluoromethoxy)-2,3-dihydro-1H-inden-2-yl)amino)pyridin-2-yl)-2,2,2-trifluoroethyl)-N-methyltetrahydro-2H-thiopyran-4-carboxamide 1,1-dioxide] |
| 7.34 | CN(C(=O)C1CN(C(=O)CO)C1)[C@@H](c1ccc(NC2Cc3ccc(Cl)c(Cl)c3C2)cn1)C(F)(F)F (single isomer, unassigned) [Example 379] |
| 6.47 | CN(C(=O)C1CCS(=O)(=O)CC1)[C@@H](c1ccc(NC2Cc3cc(Cl)cc(Cl)c3C2)cn1)C(F)(F)F (single isomer, unassigned) [Example 282] |

The next lines start with the compound.

| SMILES | pIC50 |
| --- | --- |
| CN(C(=O)C1CC2(CCN2)C1)[C@@H](c1ccc(NC2Cc3ccccc3C2(C)C)cn1)C(F)(F)F (single isomer, unassigned) [Example 155] | 6.74 |
| CN(C(=O)CNS(C)(=O)=O)[C@@H](c1ccc(NC2Cc3ccc(Cl)c(Cl)c3C2)cn1)C(F)(F)F (single isomer, unassigned) [Example 381] | 7.11 |
| CN(C(=O)C1CNC(=O)CO1)[C@@H](c1ccc(NC2Cc3ccccc3C2(C)C)cn1)C(F)(F)F (single isomer, unassigned) [Example 135] | 6.35 |
| CN(C(=O)C1CN2CCC1CC2)[C@@H](c1ccc(NC2Cc3ccccc3C2(C)C)nc1)C(F)(F)F (single isomer, unassigned) [Example 122] | 5.94 |
| CN(C(=O)CN1CCNC1=O)[C@@H](c1ccc(NC2Cc3ccccc3C2(C)C)cn1)C(F)(F)F (single isomer, unassigned) [Example 245] | 6.89 |
| CNC(=O)C12CC(C(=O)N(C)[C@@H](c3ccc(N[C@@H]4Cc5ccccc5C4(C)C)cn3)C(F)(F)F)(C1)C2 [Example 203, N^1—((S)-1-(5-(((R)-1,1-Dimethyl-2,3-dihydro-1H-inden-2-yl)amino)pyridin-2-yl)-2,2,2-trifluoroethyl)-N^1,N^3-dimethylbicyclo[1.1.1]pentane-1,3-dicarboxamide] | 6.92 |
| Cc1nnc(N2CC(C(=O)N(C)[C@@H](c3ccc(NC4Cc5ccc(Cl)c(F)c5C4)cn3)C(F)(F)F)C2)o1 (single isomer, unassigned) [Example 364] | 6.92 |
| CN(C(=O)C1CN(S(C)(=O)=O)C1)[C@@H](c1ccc(NC2Cc3ccccc3C2(C)C)cn1)C(F)(F)F (single isomer, unassigned) [Example 210] | 6.70 |
| CN(C(=O)CNS(C)(=O)=O)[C@@H](c1ccc(NC2Cc3ccc(Cl)c(Cl)c3C2)cn1)C(F)(F)F (single isomer, unassigned) [Example 380] | 5.73 |
| CN1CCCC(C(=O)N(C)[C@@H](c2ccc(NC3Cc4ccccc4C3(C)C)cn2)C(F)(F)F)C1 (single isomer, unassigned) [Example 131] | 6.59 |
| CN(C(=O)C1CN2CCC1CC2)[C@@H](c1ccc(NC2Cc3ccccc3C2(C)C)cn1)C(F)(F)F (single isomer, unassigned) [Example 139] | 6.43 |
| CN(C(=O)C1CCNCC1)[C@@H](c1ccc(NC2Cc3ccccc3C2(C)C)nc1)C(F)(F)F (single isomer, unassigned) [Example 148] | 6.54 |
| CN(C(=O)C1C2CS(=O)(=O)CC21)[C@@H](c1ccc(NC2Cc3ccccc3C2(C)C)cn1)C(F)(F)F (single isomer, unassigned) [Example 214] | 6.49 |
| CN(C(=O)C1CC2(CCN2CCO)C1)[C@@H](c1ccc(NC2Cc3ccccc3C2(C)C)cn1)C(F)(F)F (single isomer, unassigned) [Example 248] | 6.85 |
| CC(=O)N1CCC[C@@H]1C(=O)N(C)[C@@H](c1ccc(N[C@H]2Cc3ccccc3C2(C)C)cn1)C(F)(F)F [Example 171, (R)-1-Acetyl-N—((S)-1-(5-(((S)-1,1-dimethyl-2,3-dihydro-1H-inden-2-yl)amino)pyridin-2-yl)-2,2,2-trifluoroethyl)-N-methylpyrrolidine-2-carboxamide] | 6.68 |
| CN1CC(=O)NCC1C(=O)N(C)[C@@H](c1ccc(N[C@H]2Cc3ccccc3C2(C)C)cn1)C(F)(F)F (single isomer, unassigned) [Example 201] | 6.96 |
| CN(C(=O)C1CN2CCC1CC2)[C@@H](c1ccc(NC2Cc3ccccc3C2(C)C)nc1)C(F)(F)F (single isomer, unassigned) [Example 120] | 6.11 |
| CN(C(=O)CN1CC(=O)NC1=O)[C@@H](c1ccc(NC2Cc3ccccc3C2(C)C)cn1)C(F)(F)F (single isomer, unassigned) [Example 213] | 6.30 |
